Sequences and labels used below:
T1: Histidinol dehydrogenase (Brucella suis biovar 1 (strain 1330), UniProt Q8G2R2)
T1 sequence (Q8G2R2 whole entry): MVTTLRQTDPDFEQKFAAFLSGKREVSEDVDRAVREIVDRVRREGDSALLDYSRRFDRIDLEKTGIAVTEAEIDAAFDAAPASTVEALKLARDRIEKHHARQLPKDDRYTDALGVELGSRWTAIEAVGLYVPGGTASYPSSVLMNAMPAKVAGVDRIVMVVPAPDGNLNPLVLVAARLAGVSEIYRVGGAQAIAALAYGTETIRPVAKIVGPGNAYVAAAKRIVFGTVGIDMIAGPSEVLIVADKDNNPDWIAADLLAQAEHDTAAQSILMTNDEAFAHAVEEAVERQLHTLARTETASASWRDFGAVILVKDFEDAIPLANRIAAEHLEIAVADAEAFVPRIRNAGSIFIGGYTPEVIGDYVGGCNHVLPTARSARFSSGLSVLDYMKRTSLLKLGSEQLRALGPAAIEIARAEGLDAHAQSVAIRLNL

B1: Histidinol dehydrogenase (Brucella suis biovar 1 (strain 1330)), Q8G2R2 (protein)
chain: MVTTLRQTDPDFEQKFAAFLSGKREVSEDVDRAVREIVDRVRREGDSALLDYSRRFDRIDLEKTGIAVTEAEIDAAFDAAPASTVEALKLARDRIEKHHARQLPKDDRYTDALGVELGSRWTAIEAVGLYVPGGTASYPSSVLMNAMPAKVAGVDRIVMVVPAPDGNLNPLVLVAARLAGVSEIYRVGGAQAIAALAYGTETIRPVAKIVGPGNAYVAAAKRIVFGTVGIDMIAGPSEVLIVADKDNNPDWIAADLLAQAEHDTAAQSILMTNDEAFAHAVEEAVERQLHTLARTETASASWRDFGAVILVKDFEDAIPLANRIAAEHLEIAVADAEAFVPRIRNAGSIFIGGYTPEVIGDYVGGCNHVLPTARSARFSSGLSVLDYMKRTSLLKLGSEQLRALGPAAIEIARAEGLDAHAQSVAIRLNL

Substrate in one series: N[C@H](CO)Cc1c[nH]cn1
Description: Activity of Brucella suis histidinol dehydrogenase.
The term Km denotes the concentration of substrate that gives half-maximal velocity. Regarding B1, the Km came out at 12 µM.

In another series the target is T1, Histidinol dehydrogenase. Description: Inhibition of Brucella suis histidinol dehydrogenase.
Usually IC50 stands for the concentration at which inhibition is half-maximal. A lower IC50 goes with greater potency. The molecule `N[C@@H](Cc1c[nH]cn1)C(=O)Cc1ccc(-c2ccccc2)cc1` showed an IC50 of 12.5 nM. On the same count and under the same terms, with `N[C@@H](Cc1c[nH]cn1)C(=O)Cc1ccc(Cl)cc1` the figure was 12 nM. The molecule `N[C@@H](Cc1c[nH]cn1)C(=O)Cc1ccccc1` registered an IC50 of 40 nM.

Take `N[C@@H](Cc1c[nH]cn1)C(=O)Cc1ccc(F)cc1F`: the IC50 was determined as 10 nM. `N[C@@H](Cc1c[nH]cn1)C(=O)Cc1ccc(Oc2ccccc2)cc1`: the IC50 is 16 nM.

`Cc1ccc(CC(=O)[C@@H](N)Cc2c[nH]cn2)cc1` returned an IC50 of 15 nM.

`N[C@@H](Cc1c[nH]cn1)C(=O)Cc1ccc(Cl)c(Cl)c1` gave an IC50 of 20 nM. For the molecule `N[C@@H](Cc1c[nH]cn1)C(=O)Cc1cccc2ccccc12`, half-maximal inhibition (IC50) was put at 200 nM.

In turn, `N[C@@H](Cc1c[nH]cn1)C(=O)Cc1ccc2ccccc2c1` showed an IC50 of 14.5 nM. This IC50 is about 14-fold lower than that of the molecule before. Same read-out and setting: in the case of `N[C@@H](Cc1c[nH]cn1)C(=O)Cc1ccc(Br)cc1` it was 6 nM. Consider `N[C@@H](Cc1c[nH]cn1)C(=O)Cc1ccc(F)cc1`, for which the IC50 was determined as 15 nM. With `COc1ccc(CC(=O)[C@@H](N)Cc2c[nH]cn2)cc1`, the midpoint of inhibition, the IC50, lay at 150 nM. Same read-out and setting: with `N[C@@H](Cc1c[nH]cn1)C(=O)Cc1ccc(OCc2ccccc2)cc1` the figure was 3 nM; with `N[C@@H](Cc1c[nH]cn1)C(=O)Cc1ccc2c(c1)OCO2`, 25 nM. Turning to `N[C@@H](Cc1c[nH]cn1)C(=O)Cc1c(F)c(F)c(F)c(F)c1F`, the IC50 turned out to be 70 nM.

The values above are taken from ChEMBL document CHEMBL1143663, “Brucella suis histidinol dehydrogenase: synthesis and inhibition studies of a series of substituted benzylic ketones derived from histidine” (Bioorg Med Chem, 2007).
